In patent US20200024278A1, “COMPOSITION COMPRISING ANTIBIOTIC COMPOUND AND AN HETEROCYCLIC COMPOUND AND THEIR USE IN PREVENTING OR TREATING BACTERIAL INFECTIONS” (MUTABILIS, priority 2016, published 2020):

Legend:
Test in all cases: MIC, broth microdilution (CLSI), substance alone or ATB combined with compound at 4 or 8 μg/mL
SPN 49619 = type: cell-based, S. pneumoniae; settings: SPN 49619; for MIC ATB combined with compound: compound @8 μg/ml
Summary of the method: (§1)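 Growth inhibition endpoint, read visually after 16-20 h at 35° C in ambient air. Cation-adjusted Mueller-Hinton broth, inoculum 5·10^5 CFU/mL, CLSI M7-A7 protocol.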

KPN BAA-1898 = type: cell-based, K. pneumoniae; settings: KPN BAA-1898; for MIC ATB combined with compound: compound @8 μg/ml
Summary of the method: as §1

KPN UFR42 = type: cell-based, K. pneumoniae; settings: KPN UFR42; for MIC ATB combined with compound: compound @8 μg/ml
Summary of the method: as §1

KPN 6299 = type: cell-based, K. pneumoniae; settings: compound @8 μg/ml
Summary of the method: as §1

SAU 29213 = type: cell-based, S. aureus; settings: for MIC ATB combined with compound: compound @8 μg/ml, SAU 29213
Summary of the method: as §1

ECL P99 = type: cell-based, E. cloacae; settings: ECL P99; for MIC ATB combined with compound: compound @8 μg/ml
Summary of the method: as §1

PAE 105250 = type: cell-based, P. aeruginosa; settings: PAE 105250; for MIC ATB combined with compound: compound @8 μg/ml
Summary of the method: as §1

PAE UFR48 = type: cell-based, P. aeruginosa; settings: PAE UFR48; for MIC ATB combined with compound: compound @8 μg/ml
Summary of the method: as §1

PAE UFR90 = type: cell-based, P. aeruginosa; settings: PAE UFR90; for MIC ATB combined with compound: compound @8 μg/ml
Summary of the method: as §1

ABA 19606 = type: cell-based, A. baumannii; settings: substance alone
Summary of the method: as §1

ABA 107292 = type: cell-based, A. baumannii; settings: substance alone
Summary of the method: as §1

ECO 190317 = type: cell-based, E. coli; settings: ECO 190317; for MIC ATB combined with compound: compound @8 μg/ml
Summary of the method: as §1

ECO UFR39 = type: cell-based, E. coli; settings: ECO UFR39; for MIC ATB combined with compound: compound @8 μg/ml
Summary of the method: as §1

Compound: O=C(O)C(F)(F)F.O=C1N2C[C@H](c3scnc3[C@H]2c2ncc[nH]2)N1OS(=O)(=O)[O-].[Na+] (relative stereo) [Example 6, sodium and 2,2,2-trifluoroacetate [trans-7-(1H-imidazol-3-ium--2-yl)-9-oxo-3-thia-5,8,10-triaza-tricyclo[6.2.1.0^2,6]undeca-2(6),4-dien-10-yl]sulfate]
- MIC ATB combined with compound (SPN 49619; ATB ATM): <0.031 µg/mL
- MIC ATB combined with compound (SPN 49619; ATB FEP): <0.031 µg/mL
- MIC ATB combined with compound (SPN 49619; ATB FOS): <0.125 µg/mL
- MIC ATB combined with compound (SPN 49619; ATB MEM): <0.031 µg/mL
- MIC ATB combined with compound (SPN 49619; ATB PIP): <0.031 µg/mL
- MIC (SPN 49619; substance alone): 16 µg/mL
- MIC ATB combined with compound (KPN BAA-1898; ATB ATM): <0.031 µg/mL
- MIC ATB combined with compound (KPN BAA-1898; ATB FEP): <0.031 µg/mL
- MIC ATB combined with compound (KPN BAA-1898; ATB FOS): <=0.125 μg/mL
- MIC ATB combined with compound (KPN BAA-1898; ATB MEM): <0.031 µg/mL
- MIC ATB combined with compound (KPN BAA-1898; ATB PIP): <0.031 µg/mL
- MIC (KPN BAA-1898; substance alone): 4 µg/mL
- MIC ATB combined with compound (KPN UFR42; ATB ATM): <0.031 µg/mL
- MIC ATB combined with compound (KPN UFR42; ATB FEP): <0.031 µg/mL
- MIC ATB combined with compound (KPN UFR42; ATB FOS): <0.125 µg/mL
- MIC ATB combined with compound (KPN UFR42; ATB MEM): <0.031 µg/mL
- MIC ATB combined with compound (KPN UFR42; ATB PIP): <=0.031 μg/mL
- MIC (KPN UFR42; substance alone): 4 µg/mL
- MIC ATB combined with compound (KPN 6299; ATB ATM): <0.031 µg/mL
- MIC ATB combined with compound (KPN 6299; ATB FEP): <0.031 µg/mL
- MIC ATB combined with compound (KPN 6299; ATB FOS): 0.25 µg/mL
- MIC ATB combined with compound (KPN 6299; ATB MEM): <0.031 µg/mL
- MIC ATB combined with compound (KPN 6299; ATB PIP): <0.031 µg/mL
- MIC ATB combined with compound (SAU 29213; ATB ATM): >32 µg/mL
- MIC ATB combined with compound (SAU 29213; ATB FEP): <=0.031 μg/mL
- MIC ATB combined with compound (SAU 29213; ATB FOS): <=0.125 μg/mL
- MIC ATB combined with compound (SAU 29213; ATB MEM): <=0.031 μg/mL
- MIC ATB combined with compound (SAU 29213; ATB PIP): 0.063 µg/mL
- MIC (SAU 29213; substance alone, SAU 29213 (MSSA 29213)): >32 µg/mL
- MIC ATB combined with compound (ECL P99; ATB ATM): <0.031 µg/mL
- MIC ATB combined with compound (ECL P99; ATB FEP): <0.031 µg/mL
- MIC ATB combined with compound (ECL P99; ATB FOS): <0.125 µg/mL
- MIC ATB combined with compound (ECL P99; ATB MEM): <0.031 µg/mL
- MIC ATB combined with compound (ECL P99; ATB PIP): <0.031 µg/mL
- MIC (ECL P99; substance alone): 4 µg/mL
- MIC ATB combined with compound (PAE 105250; ATB ATM): 4 µg/mL
- MIC ATB combined with compound (PAE 105250; ATB FEP): 8 µg/mL
- MIC ATB combined with compound (PAE 105250; ATB FOS): 128 µg/mL
- MIC ATB combined with compound (PAE 105250; ATB MEM): 2 µg/mL
- MIC ATB combined with compound (PAE 105250; ATB PIP): >32 µg/mL
- MIC (PAE 105250; substance alone): >32 µg/mL
- MIC ATB combined with compound (PAE UFR48; ATB ATM): 8 µg/mL
- MIC ATB combined with compound (PAE UFR48; ATB FEP): 32 µg/mL
- MIC ATB combined with compound (PAE UFR48; ATB FOS): 32 µg/mL
- MIC ATB combined with compound (PAE UFR48; ATB MEM): 4 µg/mL
- MIC ATB combined with compound (PAE UFR48; ATB PIP): >32 µg/mL
- MIC (PAE UFR48; substance alone): >32 µg/mL
- MIC ATB combined with compound (PAE UFR90; ATB ATM): 8 µg/mL
- MIC ATB combined with compound (PAE UFR90; ATB FEP): 4 µg/mL
- MIC ATB combined with compound (PAE UFR90; ATB FOS): 8 µg/mL
- MIC ATB combined with compound (PAE UFR90; ATB MEM): 1 µg/mL
- MIC ATB combined with compound (PAE UFR90; ATB PIP): >32 µg/mL
- MIC (PAE UFR90; substance alone): >32 µg/mL
- MIC (ABA 19606): 16 µg/mL
- MIC (ABA 107292): >32 µg/mL
- MIC ATB combined with compound (ECO 190317; ATB ATM): <0.031 µg/mL
- MIC ATB combined with compound (ECO 190317; ATB FEP): <0.031 µg/mL
- MIC ATB combined with compound (ECO 190317; ATB FOS): <0.125 µg/mL
- MIC ATB combined with compound (ECO 190317; ATB MEM): <0.031 µg/mL
- MIC ATB combined with compound (ECO 190317; ATB PIP): <0.031 µg/mL
- MIC (ECO 190317; substance alone): 1 µg/mL
- MIC ATB combined with compound (ECO UFR39; ATB ATM): <0.031 µg/mL
- MIC ATB combined with compound (ECO UFR39; ATB FEP): <0.031 µg/mL
- MIC ATB combined with compound (ECO UFR39; ATB FOS): <0.125 µg/mL
- MIC ATB combined with compound (ECO UFR39; ATB MEM): <0.031 µg/mL
- MIC ATB combined with compound (ECO UFR39; ATB PIP): <0.031 µg/mL
- MIC (ECO UFR39; substance alone): 2 µg/mL
